Experiment: stability of absorbance spectrum under intense pulsed light (IPL) flashes
Type: physicochemical
Details: ten pulses at the maximum power of the flash lamp
Text: Another aspect of the present invention is that controlled dissociation of the sodium-copper-chlorophyllin complex can occur in part because of the high stability of this complex. Normally, inorganic and organic copper salts, including copper-peptides, are not very stable with regard to binding copper. The inherent stability and lack of reactivity of sodium-copper-chlorophyllin is essential for this process to work successfully. […] Stability was monitored by measurement of the dye's full absorbance spectrum, since degradation of the dye would be detectable as changes in the absorbance spectrum.

With sodium-copper-chlorophyllin the “absorbance spectrum after IPL exposure (thermal and light stability)” value was “remained unchanged”.

Source: patent publication US8298555B2, “Color cosmetic compositions for topical anti-aging skin treatment” (Discovery Partners, LLC, priority 2007, dated 2012)
